The text below walks through data of US20080015186A1, “PHARMACEUTICAL CO[…] C[…] CANNABINOID RECEPTOR ANTAGONIST AND AN ANTIPSYCHOTIC” (SANOFI-AVENTIS, priority 2005, published 2008).

A short description of this test: Effect of rimonabant on the weight gain induced by treatment with risperidone (cumulative weight gain and feed consumption). Format: in vivo. Particulars: female Wistar rats on fat-rich feed, risperidone 0.3 mg/kg i.p., rimonabant 1 mg/kg p.o. (or vehicle p.o.). Here is the method:
Female Wistar rats, fed with a fat-rich feed for the three days preceding the treatment and during the treatment, are used.
Groups of 15 animals receive each day: • group 1: risperidone (0.3 mg/kg, i.p.) and the vehicle (p.o.); • group 2: risperidone (0.3 mg/kg, i.p.) and rimonabant (1 mg/kg, p.o.); • group 3: the two vehicles (i.p. and p.o.);
On the ninth day of the treatment, the cumulative weight gain over the nine days of treatment and the feed consumption on day 9 are measured.

As to `Cc1nc2n(c(=O)c1CCN1CCC(c3noc4cc(F)ccc34)CC1)CCCC2` [risperidone], the “Cumulative weight gain over the nine days of treatment” value (15/group, daily dosing for 9 days) was 23.5 g ± 1.7. For the same molecule, the “Mean feed intake on the ninth day” value (day 9 of treatment) is 15.0 g ± 0.7. For the setting “nine days of treatment”, the “Number of rats/group (%) with a weight gain <20 g” value is listed as 20% and the “Number of rats/group (%) with a weight gain >20 g” value is recorded as 80%.
